# Key:
# [1] = system: BMP-2, aggrecan and type II collagen mRNA expression in rat IVD cells; assay: Mevalonate experiment; format: cell-based; settings: mevalonate 200 μM
# [2] = system: BMP-2, aggrecan and type II collagen mRNA expression in rat IVD cells; assay: Quantitative real-time PCR, 3-D culture in alginate beads; format: cell-based, Sprague-Dawley rats
# From the text: Monolayer and Three-dimensional cell culture: Cells were trypsinized and subcultured in 12-well plate or embedded and cultured in alginate beads supplemented with complete DMEM/F12 medium after primary culture. […] Quantitative real-time PCR: […] IVD Cell Isolation. Lumbar IVDs from Sprague-Dawley rats (Harlan Sprague-Dawley, Indianapolis, Ind.) aged 6-8 weeks were harvested immediately after euthanasia. NP and inner AF, including the transition zone (the area between the AF and the NP) were carefully removed from the disc and placed in DMEM/F12 medium (Gibco, Grand Island, N.Y.). […] Louis, Mo.) and 0.004% deoxyribonuclease II (Sigma-Aldrich) for 90 min at 37° C. under gentle agitation. The tissues were washed 3 times with Dulbecco's phosphate buffered saline (D-PBS) followed by digestion under the same conditions, except that the pronase was replaced with 0.04% collagenase type II (Sigma-Aldrich) for 6 hrs. […] Culture medium was changed on day 6 after cell seeding, and twice per week thereafter. Cell Culture in Alginate Beads. When the primary cell culture became confluent, the cells were trypsinized and washed twice with D-PBS and re-suspended in sterile 0.15 M NaCl containing 1.2% low-viscosity alginate (Sigma-Aldrich) at a density of 1×10^6 cells/ml. […] After 15 min, the newly formed alginate beads (containing about 12,000 cells/bead) were washed 3 times with sterile 0.15 M NaCl solution followed by 2 washes with DMEM/F-12 medium. […] Three days later, the medium was changed and treated with different doses of simvastatin (LKT Laboratories, St. […] To remove cells from the alginate bead, wells were rinsed 3 times with 0.15 M NaCl with gentle pipetting into the well. The rinse solution was incubated for 1 min and was aspirated off. Dissolving buffer (55 mmol/L sodium citrate and 0.15 M NaCl, pH 6.0) 3 times the volume of alginate was added to the wells, and plates were incubated at 37° C. for 15 min with gentle shaking. Cells were pelleted by centrifugation and the dissolved solution was collected for sGAG content measurement. The cell pellet was washed with D-PBS once and collected for DNA content determination or RNA extraction. All experiments were performed in triplicate. RNA Isolation and Reverse Transcription. Total RNA was extracted using the Trizol (Invitrogen, Carlsbad, Calif.) reagent followed by RNeasy Mini Kit (Qiagen, Inc., Valencia, Calif.) and DNase digestion with the RNase-free DNase set (Qiagen). Concentration of total RNA was determined at 260 nm with a spectrophotometer. Reverse transcription was carried out at 42° C. for 50 min in 20-μL volume with 100 ng of total RNA using the SuperScript First-Strand Synthesis System (Invitrogen, Carlsbad, Calif.). Quantitative Real-Time Polymerase Chain Reaction. Real-time polymerase chain reaction (PCR) was used to quantify gene expression levels of type II collagen, aggrecan, and BMP-2. GAPDH was used as an internal control and the TAQMAN® Real-Time PCR Kit (Applied Biosystems, Foster City, Calif.) was implemented. Reaction volume of 30 μl included 1 μL of cDNA, 1.5 ul of 20× of each primer/probe, and 12.5 μL of TAQMAN® PCR Master Mix (2×) (Applied Biosystems). Real-time PCR was performed using the following 3-step protocol: Step 1, 50° C. for 2 min; Step 2, 95° C. for 10 min; and Step 3, (95° C. for 15 sec, 60° C. for 1 min) times 45 cycles using the Gene Amp 7700 Sequence Detection System (Applied Biosystems). A positive standard curve for each primer was obtained by real-time PCR with serially-diluted cDNA sample mixture. The reaction efficacy of each gene was determined using the standard curves. The quantity of gene expression of aggrecan, type II collagen, and BMP-2 were calculated with standard samples and normalized with GAPDH internal control.
# IVD cells = assay: IVD cell proliferation / range of cell tolerance; format: cell-based, Sprague-Dawley rats; settings: rat IVD cells
# From the text: (§1) Disc cell isolation: Nucleus pulposus and inner anulus fibrosus cells of lumbar intervertebral discs from Sprague-Dawley rats were harvested by the enzymatic digestion and grown in monolayer until reached confluence.
# (§2) Monolayer and Three-dimensional cell culture: Cells were trypsinized and subcultured in 12-well plate or embedded and cultured in alginate beads supplemented with complete DMEM/F12 medium after primary culture.
# [3] = system: BMP-2, aggrecan and collagen II mRNA expression in IVD cells; assay: Quantitative real-time PCR, monolayer culture; format: cell-based, Sprague-Dawley rats; settings: 3 μM, maximal at day 3
# From the text: as §1, §2
# Quantitative real-time PCR: Total RNAs were extracted and cDNAs were synthesized using Invitrogen […]™ first-strand synthesis kit.
# rat IVD cells = assay: MTT assay, cell viability; format: cell-based
# Protocol: MTT assay. Cell proliferation was determined by a modified MTT assay (Sigma-Aldrich) (47, 48). Briefly, at each time point, the medium was aspirated and washed with PBS once. MTT solution (0.5 mg/ml) in PBS was added and incubated at 37° C. for 1.5 hr. The cells were removed from the alginate bead and pelleted by centrifugation. The cell pellet was then washed with D-PBS once and 10% Triton X-100, 0.1 N HCl in 2-propanol solution was added to each well to dissolve the formazan at 4° C. for 3 hrs. The dissolved solution was centrifuged and the absorbance was determined immediately using a spectrophotometer at 540 nm wavelength filter. All experiments were performed in triplicate.
# BMP-2 = target: T1, BMP-2 (Homo sapiens, UniProt P12643); settings: noggin 3 μg/ml; cited from earlier work
# T1 sequence (P12643 283-396): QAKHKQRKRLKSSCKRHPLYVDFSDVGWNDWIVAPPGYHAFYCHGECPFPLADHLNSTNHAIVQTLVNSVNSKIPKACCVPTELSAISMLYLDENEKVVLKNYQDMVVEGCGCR
# [4] = system: aggrecan and type II collagen mRNA expression in rat IVD cells; assay: BMP inhibition experiment (noggin); format: cell-based
# Protocol: BMP Inhibition Experiment. […] On day 7 and/or day 14, the cells were removed from the alginate beads and the gene expression of type II collagen and aggrecan was determined.
# [5] = noggin 3 μg/ml, simvastatin 3 μM, day 14
molecule,measurement,setting,value
"CC(O)(CCO)CC(=O)O (stereo not drawn) [Mevalonate, mevalonate]","aggrecan, type II collagen and BMP-2 gene expression, mevalonate alone",[1]; alginate beads,had no effect
same,"effect on gene expression (BMP-2, aggrecan, type II collagen) upregulated by simvastatin","[1]; simvastatin 3 μM, days 7 and 14",completely reversed
CCC(C)(C)C(=O)O[C@H]1C[C@@H](C)C=C2C=C[C@H](C)[C@H](CC[C@@H]3C[C@@H](O)CC(=O)O3)[C@H]21 [simvastatin],increase of collagen type II mRNA expression,"[2]; 3-D culture (alginate beads), 3 μM, day 21",16 fold
same,increase of aggrecan mRNA expression,"[2]; 3-D culture, 3 μM, day 21",11 fold
same,increase of BMP-2 mRNA expression,"[2]; 3-D culture, 3 μM, peak level at day 7",5 fold
same,day of maximal type II collagen mRNA expression,[2]; alginate beads,21 days
same,day of maximum BMP-2 mRNA expression,"[2]; alginate beads, 3 μM",2 days
same,day of maximum aggrecan mRNA expression,"[2]; alginate beads, 3 μM",21 days
same,dose over which IVD cell proliferation was inhibited,IVD cells,over 3 μM
same,increase of BMP-2 mRNA expression,[3],2 fold
same,IVD cell viability,"rat IVD cells; 0.3 μM, time points tested",had no effect
same,IVD cell viability,"rat IVD cells; 1 μM, from day 3 and thereafter",significant decrease
same,IVD cell viability,"rat IVD cells; 3 μM, all time points tested",decreased
Noggin,block of BMP-2 activity,BMP-2,over 90%
same,"aggrecan and type II collagen mRNA expression, noggin alone","[4]; noggin 500 ng/ml, no simvastatin",had no interference
same,block of aggrecan and type II collagen gene expression upregulated by simvastatin,"[4]; noggin 500 ng/ml, simvastatin 3 μM, day 7",significantly blocked
same,block of aggrecan and type II collagen gene expression upregulated by simvastatin,"[4]; noggin 500 ng/ml, simvastatin 3 μM, day 14",did not endure
same,"aggrecan and type II collagen gene expression compared with Veh+Veh, noggin alone",[4]; noggin 3 μg/ml,inhibited both gene expressions significantly
same,effect on aggrecan gene expression upregulated by simvastatin,[4]; [5],failed to block
same,effect on type II collagen gene expression upregulated by simvastatin,[4]; [5],attenuated
same,effect on type II collagen gene expression upregulated by simvastatin,"[4]; noggin 3 μg/ml, simvastatin 3 μM, day 14, listed as noggin",significantly attenuated

# From patent US20110166417A1, “METHOD AND DEVICE FOR REPAIR OF DEGENERATIVE CARTILAGE” (THE REGENTS OF UNIVERSITY OF MICHIGAN, priority 2008, published 2011)
